Results: patent publication US9661844B2, “Pesticide composition delivery vehicles” (Dow AgroSciences LLC, priority 2012, dated 2017)

How the values were obtained:
banana plant = assay: Capsule field trial Location 2, banana growth parameters; type: in vivo; conditions: 3.5 Kg/Ha granules
Description: (§1) Field trials for the gel capsules of Example I were established under commercial conditions in banana production areas of Central America. Bananas were transplanted using commercial procedures typical of the area. Gel capsules according to Example I were used as a post-plant treatment. A commercial standard was also included as a comparison in each test. Treatments and use rates for both field trials are included in the Tables 3 and 4 below. Location 1 included four replications for each treatment and location 2 included three replications.
(§2) Gel caps were applied in the area immediately surrounding the base of the banana plant. Holes were made to a depth of 15-20 cm using a rod inserted into the soil. Gel caps were applied into the holes by hand and soil was reapplied into the holes to cover the gel caps. Commercial standards were formulated as granules and applied around the base of the plant without incorporation.
Several parameters were measured at intervals following application of the pesticide. Plant height and plant trunk diameter were evaluated over time at intervals of approximately two, four and six weeks after application of the pesticide. Root weight, percent functional roots and nematode counts were taken at intervals of 45 and 60 days after application (DAA). Plant height and trunk diameter were evaluated as direct measurements and are recorded in units of centimeters. Root weight, percent functional roots and nematode counts were obtained by separate soil samples which were taken and returned to the lab for analysis. Roots were separated from the soil and weighed. A separate, visual estimate was made to determine the percent of these roots that were healthy and functional. Nematode counts were made by extracting them from the roots and soil and then estimating the total by counting the actual number in subsamples of the extracted materials.

nematode = assay: Capsule field trial Location 2, nematode count; type: in vivo; conditions: 3.5 Kg/Ha granules
Description: as §1, §2
Several parameters were measured at intervals following application of the pesticide. Plant height and plant trunk diameter were evaluated over time at intervals of approximately two, four and six weeks after application of the pesticide. Root weight, percent functional roots and nematode counts were taken at intervals of 45 and 60 days after application (DAA). Plant height and trunk diameter were evaluated as direct measurements and are recorded in units of centimeters. […]

In the case of `CCOP(=O)(SC(C)CC)SC(C)CC` (stereo not drawn) [cadusaphos, cadusafos], the “Plant Height” value (banana plant; 15 DAA) is reported as 143 cm, the Stem diameter (banana plant; 15 DAA) is reported as 30 cm and the “Plant Height” value (banana plant; 29 DAA) is reported as 156 cm. The Stem diameter (banana plant; 29 DAA) was 33 cm, the “Plant Height” value (banana plant; 43 DAA) was 169 cm and the Stem diameter (banana plant; 43 DAA) was 36 cm. The “% Functional roots” value (banana plant; 45 DAA) was 82%, the Root weight (banana plant; 45 DAA) was 44 gms and the “% Functional roots” value (banana plant; 60 DAA) was 86%. For the same compound, the Root weight (banana plant; 60 DAA) was 53 gms, the Nematode count (nematode; 45 DAA) was 11,200a and the Nematode count (nematode; 60 DAA) was 23,733a.
